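Interpolation was linear, between the two tested concentrations surrounding the appropriate level; five concentrations were tested over 48 hours in 96-well plates. GI50 = concentration required for 50% inhibition of growth. The concentration for full growth arrest is given as TGI.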

Experimental findings from PubChem BioAssay (NCI) are described below.

Among the test systems are HCT-116 colon; SK-MEL-2 melanoma; A549 NSCLC; SR leukemia; OVCAR-8 ovarian; U251 CNS; HOP-92 NSCLC; RXF 393 renal; M14 melanoma; OVCAR-4 ovarian.
Common to all, as to test: NCI anticancer screen, dose series, 48 h

As for `O=c1c2ccccc2[nH]c2c(O)ccc(O)c12`, the TGI with HCT-116 colon is 37.9 µM; with SK-MEL-2 melanoma, over 100 µM; in the experiment on A549 NSCLC, over 100 µM; in the experiment with SR leukemia, 39.2 µM; in the experiment with OVCAR-8 ovarian, 35.2 µM; in the experiment with U251 CNS, 21.6 µM. The TGI was 34.5 µM with HOP-92 NSCLC, 25.8 µM with RXF 393 renal, 30.3 µM in the experiment on M14 melanoma and 18.5 µM in the experiment on OVCAR-4 ovarian.

Turning to `O=C(O)C1CC=CCC1C(=O)Nc1cccc(O)c1` (stereo not given), the TGI in the experiment on HCT-116 colon, in the experiment on SK-MEL-2 melanoma, in the experiment on A549 NSCLC, with SR leukemia, in the experiment on OVCAR-8 ovarian and with U251 CNS was over 100 µM throughout. Further, the TGI in the experiment on HOP-92 NSCLC, in the experiment on RXF 393 renal, in the experiment with M14 melanoma and with OVCAR-4 ovarian was over 100 µM each time.

In the case of `O=C1C(=C2CCCC2)CCC1CN1CCCCC1` (stereo not given), the TGI was 38.1 µM in the experiment on HCT-116 colon; 30.7 µM in the experiment on SK-MEL-2 melanoma; over 100 µM with A549 NSCLC; 47.1 µM in the experiment with SR leukemia; 43.4 µM in the experiment on OVCAR-8 ovarian; over 100 µM in the experiment with U251 CNS. Besides, the TGI in the experiment on HOP-92 NSCLC amounted to 37.7 µM; in the experiment on RXF 393 renal, 30 µM; in the experiment on M14 melanoma, 29.6 µM; in the experiment on OVCAR-4 ovarian it was 30.3 µM.

On to `c1ccc(CN2CCc3[nH]c4ccccc4c3C2)cc1`, for which the TGI in the experiment with HCT-116 colon was 43.6 µM; with SK-MEL-2 melanoma, 41.1 µM; with A549 NSCLC, over 79.8 µM; with SR leukemia, over 76.6 µM; in the experiment on OVCAR-8 ovarian, over 77.4 µM; with U251 CNS it was 53.8 µM. The TGI is 62.1 µM in the experiment on HOP-92 NSCLC, over 100 µM with RXF 393 renal, 33.1 µM in the experiment on M14 melanoma and 84.4 µM in the experiment on OVCAR-4 ovarian.

For `Cc1coc2c1C(=O)C(=O)c1ccccc1-2`, the TGI with HCT-116 colon came out at 0.879 µM; in the experiment with SK-MEL-2 melanoma, 3.78 µM; with A549 NSCLC, 4.07 µM; with SR leukemia it was 4.78 µM; in the experiment on OVCAR-8 ovarian it was 1.25 µM; in the experiment on U251 CNS, 2.97 µM. Also, the TGI came to 1.28 µM in the experiment with HOP-92 NSCLC, 3.12 µM in the experiment with RXF 393 renal, 2.63 µM in the experiment with M14 melanoma and 3.22 µM in the experiment on OVCAR-4 ovarian.

Turning to `O=C1Nc2cc(-c3cccc(O)c3)ccc2/C1=C/c1ccc[nH]1`, the GI50 with HCT-116 colon was 1.32 µM; in the experiment with SK-MEL-2 melanoma, 1.48 µM; with A549 NSCLC, 3.05 µM; in the experiment with SR leukemia, 0.0282 µM; in the experiment on OVCAR-8 ovarian, 3.45 µM; with U251 CNS it was 2.38 µM. Moreover, the GI50 is 1.9 µM in the experiment with HOP-92 NSCLC, 0.476 µM in the experiment on RXF 393 renal, 1.68 µM with M14 melanoma and 0.305 µM in the experiment with OVCAR-4 ovarian. Besides, the TGI in the experiment with HCT-116 colon stood at 3.44 µM; in the experiment on SK-MEL-2 melanoma, 6.77 µM; in the experiment with A549 NSCLC it was 11.8 µM; in the experiment with SR leukemia, 1.82 µM; in the experiment with OVCAR-8 ovarian, 49.2 µM; with U251 CNS, 12.1 µM. Moreover, the TGI was determined as 6.26 µM in the experiment on HOP-92 NSCLC, 2.73 µM in the experiment with RXF 393 renal, 3.54 µM in the experiment with M14 melanoma and 16.2 µM in the experiment with OVCAR-4 ovarian.

Regarding `CC(C)c1ccc(C2NC(=S)NC3=C2c2ccccc2C3=O)cc1` (stereo not given), the TGI in the experiment on HCT-116 colon is over 58.4 µM; with SK-MEL-2 melanoma it was 41.7 µM; with A549 NSCLC it was over 62.4 µM; in the experiment with SR leukemia, 30.6 µM; in the experiment with OVCAR-8 ovarian, over 62.1 µM; with U251 CNS, over 58.7 µM. Besides, the TGI with HOP-92 NSCLC is 48.3 µM; in the experiment with RXF 393 renal it was 23.9 µM; in the experiment with M14 melanoma it was over 57 µM; with OVCAR-4 ovarian, 53.8 µM.

For the compound `C[P+](C)(C)C`, the TGI in the experiment with HCT-116 colon, with SK-MEL-2 melanoma, with A549 NSCLC, with SR leukemia, in the experiment with OVCAR-8 ovarian and with U251 CNS was over 100 µM in each case. In addition, the TGI with HOP-92 NSCLC, in the experiment with RXF 393 renal, in the experiment on M14 melanoma and with OVCAR-4 ovarian was over 100 µM in each case.

On to `CCC1C(C)C=NN1c1nc(N)nc(C(C#N)=Nc2ccc(N(C)C)cc2)n1` (stereo not given), for which the GI50 in the experiment on HCT-116 colon is 16.5 µM; in the experiment with SK-MEL-2 melanoma, 32.2 µM; with A549 NSCLC, 33.9 µM; in the experiment with SR leukemia, 9.56 µM; in the experiment on OVCAR-8 ovarian, 10.6 µM; with U251 CNS it was 8.93 µM. Also, the GI50 in the experiment with HOP-92 NSCLC is 12.1 µM; in the experiment with RXF 393 renal, 10.3 µM; in the experiment on M14 melanoma, 9.11 µM; in the experiment with OVCAR-4 ovarian, 16.3 µM. The TGI with HCT-116 colon was over 50 µM; in the experiment with SK-MEL-2 melanoma, over 50 µM; in the experiment on A549 NSCLC, over 50 µM; with SR leukemia, over 50 µM; with OVCAR-8 ovarian it was 31 µM; with U251 CNS, 16.8 µM. The TGI in the experiment on HOP-92 NSCLC is over 50 µM; in the experiment with RXF 393 renal, 24 µM; in the experiment with M14 melanoma, 16.5 µM; in the experiment on OVCAR-4 ovarian, over 50 µM.

For the compound `CC1=C(C(=O)NCc2ccccc2)C(c2ccc(Cl)c(Cl)c2)C(C(=O)NCc2ccccc2)=C(C)N1`, the TGI with HCT-116 colon, in the experiment on SK-MEL-2 melanoma, in the experiment on A549 NSCLC, with SR leukemia, in the experiment with OVCAR-8 ovarian and with U251 CNS was over 100 µM in each case. In addition, the TGI with HOP-92 NSCLC, in the experiment with RXF 393 renal, in the experiment with M14 melanoma and in the experiment on OVCAR-4 ovarian was over 100 µM throughout.

Regarding `O=[N+]([O-])c1cccc(-c2nc(-c3ccc(Cl)cc3Cl)cn2-c2ccccc2)c1`, the GI50 was 0.855 µM in the experiment on HCT-116 colon; 1.9 µM in the experiment on SK-MEL-2 melanoma; 0.787 µM with A549 NSCLC; 1.24 µM with SR leukemia; 0.947 µM in the experiment on OVCAR-8 ovarian; 0.614 µM in the experiment on U251 CNS. Also, the GI50 in the experiment with HOP-92 NSCLC is 0.105 µM; in the experiment on RXF 393 renal, 0.823 µM; in the experiment on M14 melanoma, 1.45 µM; in the experiment with OVCAR-4 ovarian, 0.58 µM. The TGI in the experiment on HCT-116 colon is 2.02 µM; in the experiment on SK-MEL-2 melanoma, over 11.8 µM; in the experiment with A549 NSCLC, 1.92 µM; in the experiment on SR leukemia, over 33.3 µM; in the experiment on OVCAR-8 ovarian, 2.64 µM; with U251 CNS it was 1.26 µM. The TGI is 22.7 µM in the experiment with HOP-92 NSCLC, 2.08 µM in the experiment with RXF 393 renal, over 14.9 µM in the experiment with M14 melanoma and 1.12 µM in the experiment with OVCAR-4 ovarian.
